Data: patent US12528773B2, “Non-lysosomal glucosylceramidase inhibitors and uses thereof” (ALECTOS THERAPEUTICS INC., priority 2020, dated 2026)

Tests used:
Type in all cases: biochemical
[1] = target: T1, GBA2 (Homo sapiens (Human), UniProt Q9HCG7); test: Inhibition of GBA2 in cell lysate (4-methylumbelliferone glucopyranoside substrate); details: HEK293T-overexpressing GBA2 cellular homogenate, pH 5.5; read-out: GBA2 IC50;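 note: homogenate of stably transfected HEK293T cells pre-treated with a GCase inhibitor, test compound preincubated 5 min at 37 °C, substrate reaction 20 min at 37 °C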
[2] = target: T1, GBA2; test: Binding specificity for GBA2 over other molecules, Ki or IC50 ratio
From the text: In some embodiments, one or more of the compounds according to the invention may specifically bind a GBA2. In alternative embodiments, one or more of the compounds according to the invention may specifically bind the active site of a GBA2. […] In alternative embodiments, one or more of the compounds according to the invention may specifically bind the human non-lysosomal glucosylceramidase (GBA2) over the human lysosomal glucosylceramidase (GCase) and/or the human cytosolic glucosylceramidase (GBA3). In alternative embodiments, one or more of the compounds according to the invention may specifically bind the human non-lysosomal glucosylceramidase (GBA2) over the human glucosylceramide synthase (GCS). In alternative embodiments, one or more of the compounds according to the invention may specifically bind the human non-lysosomal glucosylceramidase (GBA2) over an intestinal alpha-glucosidase, where the intestinal alpha-glucosidase may be a sucrase-isomaltase or a maltase-glucoamylase.

[3] = system: rat intestinal alpha-glucosidases; test: Inhibition of rat intestinal alpha-glucosidases (rat intestinal lysate, glucose detection); details: compound concentration 25 μM, sucrose as substrate
Method in brief: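 Rat intestinal acetone-powder lysate in citrate-phosphate pH 6.0 with 50 or 25 μM compound, 3.3% DMSO, 37 °C, 20 min. Sucrose reactions used 2.1 mg/mL lysate and 40 mM sucrose; maltose reactions 0.69 mg/mL lysate and 10 mM maltose. Glucose was detected by Amplex Red fluorescence at 10 min, or by hexokinase absorbance at 340 nm, relative to no-compound wells.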

T1 sequence (Q9HCG7 whole entry): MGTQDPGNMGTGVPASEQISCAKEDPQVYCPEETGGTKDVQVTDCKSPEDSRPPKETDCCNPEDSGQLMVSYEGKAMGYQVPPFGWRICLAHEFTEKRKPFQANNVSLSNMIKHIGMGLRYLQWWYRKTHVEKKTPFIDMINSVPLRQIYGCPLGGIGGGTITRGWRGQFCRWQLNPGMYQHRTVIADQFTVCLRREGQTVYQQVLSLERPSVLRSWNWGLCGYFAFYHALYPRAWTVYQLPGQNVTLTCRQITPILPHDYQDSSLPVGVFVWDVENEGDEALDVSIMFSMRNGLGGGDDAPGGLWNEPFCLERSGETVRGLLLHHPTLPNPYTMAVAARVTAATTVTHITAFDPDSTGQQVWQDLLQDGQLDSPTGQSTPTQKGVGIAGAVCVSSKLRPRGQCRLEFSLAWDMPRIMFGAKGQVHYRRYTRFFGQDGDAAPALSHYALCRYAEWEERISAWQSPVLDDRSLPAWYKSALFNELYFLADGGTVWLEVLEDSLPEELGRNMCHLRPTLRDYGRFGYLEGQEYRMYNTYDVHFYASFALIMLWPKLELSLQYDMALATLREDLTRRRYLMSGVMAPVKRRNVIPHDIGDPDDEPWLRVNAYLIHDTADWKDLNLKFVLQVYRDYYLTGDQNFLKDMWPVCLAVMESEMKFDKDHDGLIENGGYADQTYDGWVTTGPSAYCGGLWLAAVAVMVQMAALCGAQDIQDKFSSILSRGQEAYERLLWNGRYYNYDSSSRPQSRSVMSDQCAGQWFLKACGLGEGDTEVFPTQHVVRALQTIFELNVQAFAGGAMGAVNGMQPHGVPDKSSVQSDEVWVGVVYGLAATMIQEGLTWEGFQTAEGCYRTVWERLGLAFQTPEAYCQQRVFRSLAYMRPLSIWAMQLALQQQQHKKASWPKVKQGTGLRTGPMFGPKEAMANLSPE

SMILES	IC50 [1] [nM]	binding specificity, IC50(other molecule)/IC50(GBA2) or Ki ratio [2]	rat α-glu. (% inhib.) [3] [%]
O[C@H]1[C@H](O)CN(CCc2c(F)cc(C3CCOCC3)cc2F)C[C@@H]1O [Example 13, (3S,4r,5R)-1-(2,6-difluoro-4-(tetrahydro-2H-pyran-4-yl)phenethyl)piperidine-3,4,5-triol]	< 100	enhanced binding specificity	5
CC(C)(F)[C@H]1CC[C@@H](CN2C[C@@H](O)[C@H](O)[C@@H](O)C2)CC1 [Example 3, (3S,4R,5R)-1-(((1s,4S)-4-(2-fluoropropan-2-yl)cyclohexyl)methyl)piperidine-3,4,5-triol]	< 100	enhanced binding specificity	1
O[C@H]1[C@H](O)CN(C[C@H]2CC[C@H](C(F)(F)F)CC2)C[C@@H]1O [Example 1, (3S,4R,5R)-1-(((1r,4R)-4-(trifluoromethyl)cyclohexyl)methyl)piperidine-3,4,5-triol]	< 100	enhanced binding specificity	0
O[C@H]1[C@H](O)CN(CCc2c(F)ccc(Cl)c2F)C[C@@H]1O [Example 7, (3S,4r,5R)-1-(3-chloro-2,6-difluorophenethyl)piperidine-3,4,5-triol]	< 100	enhanced binding specificity	0
O[C@H]1[C@H](O)CN(CCc2c(F)cc(N3CCCC3)cc2F)C[C@@H]1O [Example 10, (3S,4r,5R)-1-(2,6-difluoro-4-(pyrrolidin-1-yl)phenethyl)piperidine-3,4,5-triol]	< 100	enhanced binding specificity	7
O[C@H]1[C@H](O)CN(CCc2c(F)cc(N3CCOCC3)cc2F)C[C@@H]1O [Example 12, (3S,4r,5R)-1-(2,6-difluoro-4-morpholinophenethyl)piperidine-3,4,5-triol]	< 100	enhanced binding specificity	4
O[C@H]1[C@H](O)CN(C[C@H]2CCN(c3cnccc3C(F)(F)F)C2)C[C@@H]1O [Example 20, (3S,4R,5R)-1-(((R)-1-(4-(trifluoromethyl)pyridin-3-yl)pyrrolidin-3-yl)methyl)piperidine-3,4,5-triol]	< 100	enhanced binding specificity	4
Cc1noc(C)c1-c1cc(F)c(CCN2C[C@@H](O)[C@H](O)[C@@H](O)C2)c(F)c1 [Example 14, (3S,4r,5R)-1-(4-(3,5-dimethylisoxazol-4-yl)-2,6-difluorophenethyl)piperidine-3,4,5-triol]	< 100	enhanced binding specificity	2
Cc1ccccc1N1CC[C@H](CN2C[C@@H](O)[C@H](O)[C@@H](O)C2)C1 [Example 18, (3S,4R,5R)-1-(((R)-1-(o-tolyl)pyrrolidin-3-yl)methyl)piperidine-3,4,5-triol]	< 100	enhanced binding specificity	0
O[C@H]1[C@H](O)CN(C[C@H]2CC[C@@H](C(F)(F)F)CC2)C[C@@H]1O [Example 2, (3S,4R,5R)-1-(((1s,4S)-4-(trifluoromethyl)cyclohexyl)methyl)piperidine-3,4,5-triol]	< 100	enhanced binding specificity	4

Further lines, with some results ahead:

IC50 [1] [nM]	binding specificity, IC50(other molecule)/IC50(GBA2) or Ki ratio [2]	SMILES	rat α-glu. (% inhib.) [3] [%]
< 100	enhanced binding specificity	O[C@H]1[C@H](O)CN(C[C@H]2CCCN(c3cccc4scnc34)C2)C[C@@H]1O [Example 35, (3S,4R,5R)-1-(((R)-1-(benzo[d]thiazol-4-yl)piperidin-3-yl)methyl)piperidine-3,4,5-triol]	7
< 100	enhanced binding specificity	O[C@H]1[C@H](O)CN(C[C@H]2CCCN(c3cccc(C(F)(F)F)n3)C2)C[C@@H]1O [Example 30, (3S,4R,5R)-1-(((R)-1-(6-(trifluoromethyl)pyridin-2-yl)piperidin-3-yl)methyl)piperidine-3,4,5-triol]	6
< 100	enhanced binding specificity	O[C@H]1[C@H](O)CN(C[C@@H]2CCCN(c3ncccc3C(F)(F)F)C2)C[C@@H]1O [Example 36, (3S,4S,5R)-1-(((S)-1-(3-(trifluoromethyl)pyridin-2-yl)piperidin-3-yl)methyl)piperidine-3,4,5-triol]	0
< 100	enhanced binding specificity	O[C@H]1[C@H](O)CN(C[C@H]2CCCN(c3cccnc3C(F)(F)F)C2)C[C@@H]1O [Example 31, (3S,4R,5R)-1-(((R)-1-(2-(trifluoromethyl)pyridin-3-yl)piperidin-3-yl)methyl)piperidine-3,4,5-triol]	0
< 100	enhanced binding specificity	O[C@H]1[C@H](O)CN(C[C@H]2CCN(c3nc(C(F)(F)F)cs3)C2)C[C@@H]1O [Example 21, (3S,4R,5R)-1-(((R)-1-(4-(trifluoromethyl)thiazol-2-yl)pyrrolidin-3-yl)methyl)piperidine-3,4,5-triol]	6
< 100	enhanced binding specificity	O[C@H]1[C@H](O)CN(C[C@H]2CCCN(c3nc4ccccc4s3)C2)C[C@@H]1O [Example 34, (3S,4R,5R)-1-(((R)-1-(benzo[d]thiazol-2-yl)piperidin-3-yl)methyl)piperidine-3,4,5-triol]	2
